Several values for one entry are separate records, joined by “and”; a condition that tells them apart may be missing. Equal entries are not always repeated. HELM strings list units from the 5' end as sugar, base in round brackets, then linkage (d deoxyribose, r ribose, m 2'-O-methyl, p phosphodiester). Strings are as the collection lists them, not checked against the first reports. ss, as = sense and antisense strand; [lna] = locked nucleic acid (LNA); [hna] = hexitol nucleic acid; [s4r] = 4'-thioribose; [fl2r] = 2'-fluoro

The source of these data is the OligoGym collection.
Further: test system not given here.

The conditions of the data set: siRNA.
The substance “RNA1{r(U)p.r(U)p.m(A)p.m(C)p.r(A)p.r(A)p.r(A)p.r(G)p.r(G)p.r(A)p.r(U)p.r(C)p.r(U)p.r(C)p.r(C)p.r(U)p.r(C)p.r(C)p.r(C)p.r(T)p.r(T)}|RNA2{r(G)p.r(G)p.r(G)p.r(A)p.r(G)p.r(G)p.r(A)p.r(G)p.r(A)p.r(U)p.r(C)p.r(C)p.r(U)p.r(U)p.r(U)p.r(G)p.m(U)p.r(A)p.r(A)p.r(T)p.r(T)}$$$RNA1{StrandType:ss}|RNA2{StrandType:as}$” gave a target mRNA knockdown of 74%.

As to “RNA1{r(A)p.r(A)p.r(C)p.r(C)p.r(C)p.r(A)p.r(C)p.r(C)p.r(A)p.r(C)p.r(A)p.r(G)p.r(C)p.r(U)p.r(A)p.r(G)p.r(A)p.r(A)p.r(C)p.r(U)p.r(U)}|RNA2{r(A)p.r(A)p.m(G)p.m(U)p.m(U)p.r(C)p.m(U)p.r(A)p.m(G)p.r(C)p.m(U)p.m(G)p.m(U)p.m(G)p.m(G)p.m(U)p.m(G)p.m(G)p.r(G)p.m(U)p.m(U)}$$$RNA1{StrandType:ss}|RNA2{StrandType:as}$”, the target mRNA knockdown came to 15%.

With “RNA1{r(A)p.r(A)p.r(C)p.r(C)p.r(C)p.r(A)p.r(C)p.r(C)p.r(A)p.r(C)p.r(A)p.r(G)p.r(C)p.m(U)p.r(A)p.r(G)p.r(A)p.r(A)p.r(C)p.r(U)p.r(U)}|RNA2{r(A)p.r(A)p.r(G)p.r(U)p.r(U)p.r(C)p.r(U)p.r(A)p.r(G)p.r(C)p.r(U)p.r(G)p.r(U)p.r(G)p.r(G)p.r(U)p.r(G)p.r(G)p.r(G)p.r(U)p.r(U)}$$$RNA1{StrandType:ss}|RNA2{StrandType:as}$”, the target mRNA knockdown was 84% and 82%.

As for “RNA1{r(G)p.r(A)p.r(C)p.r(G)p.r(U)p.r(A)p.r(A)p.r(A)p.r(C)p.r(G)p.r(G)p.r(C)p.r(C)p.r(A)p.r(C)p.r(A)p.r(A)p.r(G)p.r(U)p.r(U)p.r(C)}|RNA2{[fl2r](A)p.m(C)p.[fl2r](U)p.m(U)p.[fl2r](G)p.m(U)p.[fl2r](G)p.m(G)p.[fl2r](C)p.m(C)p.[fl2r](G)p.m(U)p.[fl2r](U)p.m(U)p.[fl2r](A)p.m(C)p.[fl2r](G)p.m(U)p.[fl2r](C)p.m(G)p.[fl2r](C)}$$$RNA1{StrandType:ss}|RNA2{StrandType:as}$”, the target mRNA knockdown is 73.8%.

“RNA1{[lna](G)p.r(C)p.r(A)p.r(G)p.r(C)p.r(A)p.r(C)p.r(G)p.r(A)p.r(C)p.r(U)p.r(U)p.r(C)p.r(U)p.r(U)p.r(C)p.r(A)p.r(A)p.r(G)p.r(U)p.r(U)}|RNA2{r(C)p.m(U)p.r(U)p.r(G)p.r(A)p.r(A)p.r(G)p.r(A)p.r(A)p.r(G)p.r(U)p.r(C)p.r(G)p.r(U)p.r(G)p.r(C)p.r(U)p.r(G)p.r(C)p.r(U)p.r(U)}$$$RNA1{StrandType:ss}|RNA2{StrandType:as}$” came in with a target mRNA knockdown of 68.6%.

In turn, “RNA1{r(G)p.r(G)p.r(C)p.r(G)p.r(G)p.r(G)p.r(C)p.r(U)p.r(C)p.r(U)p.r(U)p.r(U)p.r(C)p.r(C)p.m(U)p.r(A)p.r(U)p.r(U)p.r(C)p.r(T)p.r(T)}|RNA2{r(G)p.r(A)p.r(A)p.m(U)p.r(A)p.r(G)p.r(G)p.r(A)p.r(A)p.r(A)p.r(G)p.r(A)p.r(G)p.r(C)p.r(C)p.r(C)p.r(G)p.r(C)p.r(C)p.r(T)p.r(T)}$$$RNA1{StrandType:ss}|RNA2{StrandType:as}$” had a target mRNA knockdown of 69%.

The substance “RNA1{[fl2r](G)p.r(C)p.[fl2r](U)p.r(G)p.[fl2r](U)p.r(A)p.[fl2r](A)p.r(C)p.[fl2r](C)p.r(U)p.[fl2r](C)p.r(G)p.[fl2r](G)p.r(A)p.[fl2r](G)p.r(A)p.[fl2r](G)p.r(U)p.r(U)p.r(T)p.r(T)}|RNA2{r(A)p.r(A)p.r(C)p.r(U)p.r(C)p.r(U)p.r(C)p.r(C)p.r(G)p.r(A)p.r(G)p.r(G)p.r(U)p.r(U)p.r(A)p.r(C)p.r(A)p.r(G)p.r(C)p.r(T)p.r(T)}$$$RNA1{StrandType:ss}|RNA2{StrandType:as}$” showed a target mRNA knockdown of 51%.

Take “RNA1{[s4r](A)p.[s4r](A)p.[s4r](A)p.[s4r](C)p.[s4r](A)p.[s4r](U)p.r(G)p.r(C)p.r(A)p.r(G)p.r(A)p.r(A)p.r(A)p.[s4r](A)p.[s4r](U)p.[s4r](G)p.[s4r](C)p.[s4r](U)p.[s4r](G)p.r(T)p.r(T)}|RNA2{r(C)p.r(A)p.r(G)p.r(C)p.r(A)p.r(U)p.r(U)p.r(U)p.r(U)p.r(C)p.r(U)p.r(G)p.r(C)p.r(A)p.r(U)p.r(G)p.r(U)p.r(U)p.r(U)p.r(T)p.r(T)}$$$RNA1{StrandType:ss}|RNA2{StrandType:as}$”: the target mRNA knockdown is 75.4% and 87%.

On to “RNA1{r(G)p.[hna](A)p.r(C)p.r(G)p.r(U)p.r(A)p.r(A)p.[hna](A)p.r(C)p.r(G)p.r(G)p.r(C)p.r(C)p.[hna](A)p.r(C)p.r(A)p.[hna](A)p.r(G)p.r(U)p.r(U)p.r(C)}|RNA2{r(A)p.r(C)p.[lna](T)p.r(U)p.r(G)p.[lna](T)p.r(G)p.r(G)p.r(C)p.r(C)p.r(G)p.r(U)p.r(U)p.[lna](T)p.r(A)p.r(C)p.r(G)p.[lna](T)p.r(C)p.[lna](G)p.[lna](C)}$$$RNA1{StrandType:ss}|RNA2{StrandType:as}$”, for which the target mRNA knockdown was determined as 3.6%.

In turn, “RNA1{r(G)p.r(A)p.r(C)p.r(G)p.r(U)p.r(A)p.r(A)p.r(A)p.r(C)p.r(G)p.r(G)p.r(C)p.r(C)p.r(A)p.r(C)p.r(A)p.r(A)p.r(G)p.[hna](U)p.[hna](U)p.r(C)}|RNA2{[fl2r](A)p.m(C)p.[fl2r](U)p.m(U)p.[fl2r](G)p.m(U)p.[fl2r](G)p.m(G)p.[fl2r](C)p.m(C)p.[fl2r](G)p.m(U)p.[fl2r](U)p.m(U)p.[fl2r](A)p.m(C)p.[fl2r](G)p.m(U)p.[fl2r](C)p.m(G)p.[fl2r](C)}$$$RNA1{StrandType:ss}|RNA2{StrandType:as}$” returned a target mRNA knockdown of 45.8%.

“RNA1{r(G)p.r(C)p.r(A)p.r(G)p.r(C)p.r(A)p.r(C)p.r(G)p.r(A)p.r(C)p.r(U)p.r(U)p.r(C)p.r(U)p.r(U)p.r(C)p.r(A)p.r(A)p.r(G)p.r(U)p.r(U)}|RNA2{r(C)p.m(U)p.r(U)p.r(G)p.r(A)p.r(A)p.r(G)p.r(A)p.r(A)p.r(G)p.r(U)p.r(C)p.r(G)p.r(U)p.r(G)p.r(C)p.r(U)p.r(G)p.r(C)p.r(U)p.r(U)}$$$RNA1{StrandType:ss}|RNA2{StrandType:as}$”: the target mRNA knockdown came out at 71.7%.

“RNA1{r(G)p.r(A)p.r(A)p.r(G)p.r(A)p.[fl2r](U)p.r(A)p.r(G)p.r(G)p.r(A)p.r(A)p.r(G)p.r(G)p.r(G)p.r(G)p.r(C)p.r(U)p.r(U)p.r(C)p.r(T)p.r(T)}|RNA2{r(G)p.r(A)p.r(A)p.r(G)p.r(C)p.r(C)p.r(C)p.r(C)p.r(U)p.r(U)p.r(C)p.r(C)p.[fl2r](U)p.r(A)p.r(U)p.r(C)p.r(U)p.r(U)p.r(C)p.r(T)p.r(T)}$$$RNA1{StrandType:ss}|RNA2{StrandType:as}$” returned a target mRNA knockdown of 56%.

As to “RNA1{r(A)p.r(U)p.r(C)p.r(U)p.r(G)p.r(A)p.r(A)p.r(G)p.r(A)p.r(A)p.r(G)p.r(G)p.r(A)p.r(G)p.r(A)p.r(A)p.r(A)p.r(A)p.r(A)p.d(T)p.d(T)}|RNA2{r(U)p.r(U)p.r(U)p.r(U)p.r(U)p.r(C)p.r(U)p.r(C)p.r(C)p.r(U)p.r(U)p.r(C)p.r(U)p.r(U)p.r(C)p.r(A)p.r(G)p.r(A)p.r(U)p.d(T)p.d(T)}$$$RNA1{StrandType:ss}|RNA2{StrandType:as}$”, the target mRNA knockdown came to 95%.

As for “RNA1{m(A)p.r(C)p.m(C)p.r(U)p.m(U)p.r(A)p.m(A)p.r(G)p.m(G)p.r(A)p.m(C)p.r(C)p.m(A)p.r(C)p.m(C)p.r(G)p.m(G)p.r(A)p.m(U)p.r(T)p.r(T)}|RNA2{r(A)p.r(U)p.r(C)p.m(C)p.r(G)p.r(G)p.r(U)p.r(G)p.r(G)p.r(U)p.r(C)p.r(C)p.m(U)p.r(U)p.m(A)p.r(A)p.m(G)p.r(G)p.m(U)p.r(T)p.r(T)}$$$RNA1{StrandType:ss}|RNA2{StrandType:as}$”, the target mRNA knockdown worked out at 52%.

The substance “RNA1{r(U)p.r(G)p.r(A)p.r(G)p.r(A)p.r(G)p.r(A)p.r(A)p.r(A)p.r(G)p.r(C)p.r(A)p.r(C)p.r(A)p.r(G)p.r(A)p.r(A)p.r(A)p.r(A)p.d(T)p.d(T)}|RNA2{[lna](T)p.r(U)p.r(U)p.r(U)p.r(C)p.r(U)p.r(G)p.r(U)p.r(G)p.r(C)p.r(U)p.r(U)p.r(U)p.r(C)p.r(U)p.r(C)p.r(U)p.r(C)p.r(A)p.[lna](T)p.[lna](T)}$$$RNA1{StrandType:ss}|RNA2{StrandType:as}$” registered a target mRNA knockdown of 34%.

On to “RNA1{r(U)p.r(G)p.r(A)p.r(A)p.r(C)p.r(G)p.r(U)p.m(C)p.r(A)p.r(C)p.r(C)p.r(G)p.r(A)p.r(G)p.r(G)p.r(A)p.r(G)p.r(A)p.r(A)p.r(T)p.r(T)}|RNA2{r(U)p.r(U)p.r(C)p.r(U)p.r(C)p.r(C)p.r(U)p.r(C)p.r(G)p.r(G)p.r(U)p.r(G)p.r(A)p.r(C)p.r(G)p.r(U)p.r(U)p.m(C)p.r(A)p.r(T)p.r(T)}$$$RNA1{StrandType:ss}|RNA2{StrandType:as}$”, for which the target mRNA knockdown is 85%.

“RNA1{r(A)p.r(G)p.r(A)p.r(A)p.r(G)p.[fl2r](U)p.r(A)p.r(C)p.r(C)p.r(A)p.r(G)p.r(G)p.r(A)p.r(G)p.r(G)p.r(C)p.r(G)p.r(U)p.r(U)p.r(T)p.r(T)}|RNA2{r(A)p.r(A)p.r(C)p.r(G)p.r(C)p.r(C)p.r(U)p.r(C)p.r(C)p.[fl2r](U)p.r(G)p.r(G)p.r(U)p.r(A)p.r(C)p.r(U)p.r(U)p.r(C)p.r(U)p.r(T)p.r(T)}$$$RNA1{StrandType:ss}|RNA2{StrandType:as}$” registered a target mRNA knockdown of 60%.

“RNA1{m(A)p.r(U)p.m(A)p.r(C)p.m(U)p.r(U)p.m(G)p.r(G)p.m(C)p.r(G)p.m(G)p.r(G)p.m(C)p.r(U)p.m(C)p.r(U)p.m(U)p.r(U)p.m(C)p.r(T)p.r(T)}|RNA2{m(G)p.r(A)p.r(A)p.r(A)p.m(G)p.r(A)p.m(G)p.r(C)p.r(C)p.r(C)p.m(G)p.r(C)p.r(C)p.r(A)p.r(A)p.m(G)p.r(U)p.r(A)p.r(U)p.r(T)p.r(T)}$$$RNA1{StrandType:ss}|RNA2{StrandType:as}$” returned a target mRNA knockdown of 25%.

In the case of “RNA1{r(G)p.r(A)p.r(A)p.r(G)p.r(A)p.r(G)p.r(U)p.m(U)p.r(A)p.r(A)p.r(C)p.r(C)p.r(C)p.m(G)p.r(G)p.r(G)p.m(A)p.r(C)p.r(U)p.r(T)p.r(T)}|RNA2{r(A)p.r(G)p.r(U)p.r(C)p.r(C)p.r(C)p.r(G)p.r(G)p.r(G)p.r(U)p.m(U)p.r(A)p.r(A)p.r(C)p.r(U)p.r(C)p.r(U)p.r(U)p.r(C)p.r(T)p.r(T)}$$$RNA1{StrandType:ss}|RNA2{StrandType:as}$”, the target mRNA knockdown was found to be 47%.
